Data from patent US20260256751A1, “COMBINATION OF BETA-2-ADRENERGIC RECEPTOR AGONISTS AND GLP-1 RECEPTOR AGONISTS FOR USE IN TREATING HYPERGLYCAEMIA” (ATROGI AB, priority 2023, published 2026).

Columns and labels:
[1] = system: differentiated L6-myotubes; experiment: Glucose uptake screen (Biological example 1 of WO 2019/053427); format: cell-based; details: compound at 10 μM, activity relative to isoproterenol at 10 μM, read-out: Biological example 1 of WO 2019/053427 (GU)
In short: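 Rat L6 myoblasts were differentiated into myotubes over 7 days in 2% FBS, then serum-starved overnight. Cells were stimulated with 1×10^−5 M compound plus β2 antagonist ICI-118551 for 1 h 40 min and re-dosed for 20 min in glucose-free medium. Uptake of 50 nM ^3H-2-deoxyglucose over 10 min was counted after NaOH lysis.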

[2] = system: differentiated L6-myotubes; experiment: cAMP production relative to isoprenaline (Biological example 2 of WO 2019/053427); format: cell-based; details: 0.25 h, compound at 10 μM, activity relative to isoproterenol at 10 μM
In short: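 Differentiated L6 myotubes stimulated 15 min with test compound or isoprenaline, each at final 1×10^−5 M, in HBSS with 1% BSA, 5 mM HEPES, 1 mM IBMX, pH 7.4. cAMP production by the compound expressed relative to that induced by the same concentration of isoprenaline.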

Row | SMILES | Emax at 10 µM [1] [%] | Emax at 10 µM [2] [%]
1 | C[C@H]1CC[C@@H]([C@@H](O)c2ccccc2)N1 (racemic) [Compound 39, Racemic mixture of (R)-[(2R,5R)-5-methyl-2-pyrrolidinyl]phenylmeth-anol and (S)-[(2S,5S)-5-methyl-2-pyrrolidinyl]phenylmeth-anol] | 50 to 75 | < 25
2 | CC(=O)N[C@H]1CC[C@H](C(C)(C)NC[C@H](O)c2cccc(F)c2)CC1 [Compound 386, N-[(1R,4r)-4-{1-[(R)-2-(m-fluorophenyl)-2-hydroxyethylamino]-1-methylethyl}cyclohexyl]acetamide] | > 75 | < 25
3 | CC(C)(NC[C@H](O)c1cccc(F)c1)[C@H]1CC[C@@H](OCC(=O)O)CC1 [Compound 408, [(1S,4s)-4-{1-[(R)-2-(m-fluorophenyl)-2-hydroxyethylamino]-1-methylethyl}cyclohexyloxy]acetic acid] | 50 to 75 | < 25
4 | CO[C@H]1CC[C@H](CNC[C@H](O)c2cccc(F)c2)CC1 [Compound 228, (R)-1-(m-fluorophenyl)-2-({[(1r,4R)-4-methoxycyclohexyl]meth-yl}amino)-1-ethanol] | 50 to 75 | < 25
5 | COC(=O)[C@H]1CC[C@@H](CC(C)(C)NC[C@H](O)c2cncc(F)c2)CC1 [Compound 322, methyl (1S,4s)-4-{2-[(R)-2-(5-fluoro-3-pyridyl)-2-hydroxyethylamino]-2-methylpropyl}cyclohexanecarboxylate] | > 75 | < 25
6 | COc1ccc(C[C@H]2CC[C@H]([C@H](O)c3cccc(F)c3)N2)cc1 [Compound 374, (R)-{(2R,5R)-5-[(p-methoxyphenyl)methyl]-2-pyrrolidinyl}(m-fluorophenyl)methanol] | > 75 | < 25
7 | CC(C)(C)NC[C@H](O)c1cncc(F)c1 [Compound 99, (R)-2-(tert-butylamino)-1-(5-fluoro-3-pyridyl)-1-ethanol] | > 75 | 25 to 50
8 | CC(=O)N[C@H]1CC[C@@H](CNC[C@H](O)c2cccc(F)c2)CC1 [Compound 307, N-[(1S,4s)-4-{[(R)-2-(m-fluorophenyl)-2-hydroxyethylamino]methyl}cyclohexyl]acetamide] | 50 to 75 | < 25
9 | CC(C)(C)NC[C@H](O)c1cccc(O)c1F [Compound 86, (R)-2-(tert-butylamino)-1-(2-fluoro-3-hydroxyphenyl)-1-ethanol] | 50 to 75 | 50 to 75
10 | CC1(C)CC[C@H]([C@@H](O)c2ccccc2F)N1 [Compound 174, (S)-[(R)-5,5-dimethyl-2-pyrrolidinyl](o-fluorophenyl)methanol] | < 25 | < 25
11 | CC(C)(CC[C@H]1CC[C@H](O)CC1)NC[C@H](O)c1cncc(F)c1 [Compound 289, (R)-2-{1,1-dimethyl-3-[(1r,4S)-4-hydroxycyclohexyl]propyl-amino}-1-(5-fluoro-3-pyridyl)-1-ethanol] | 25 to 50 | < 25
12 | CC(=O)N[C@H]1CC[C@@H](CC(C)(C)NC[C@@H](O)c2cccc(C#N)n2)CC1 [Compound 423, N-[(1S,4s)-4-{2-[(R)-2-(6-cyano-2-pyridyl)-2-hydroxyethylamino]-2-methylpropyl}cyclohexyl]acetamide] | < 25 | < 25
13 | CC12CC(C1)[C@H]([C@H](O)c1cccc(F)c1)N2 [Compound 186, (R)-{(R)-1-methyl-2-azabicyclo[2.1.1]hex-3-yl}(m-fluorophenyl)methanol] | > 75 | 50 to 75
14 | CNS(=O)(=O)[C@H]1CC[C@H](CC(C)(C)NC[C@H](O)c2cccc(F)c2)CC1 [Compound 476, (R)-2-{1,1-dimethyl-2-[(1r,4R)-4-(methylaminosulfonyl)cyclohexyl]ethylamino}-1-(m-fluorophenyl)-1-ethanol] | > 75 | 25 to 50
